Source: patent publication US20080090859A1, “Use of Selective Opiate Receptor Modulators In the Treatment Of Neuropathy” (TIOGA PHARMACEUTICALS, INC., priority 2003, published 2008)

Legend:
[1] = test system: streptozotocin diabetic rats (tactile allodynia); test: Tactile allodynia (Von Frey filaments) in streptozotocin diabetic rats; type: in vivo, rat
Method: A) Insulin deficient diabetes was induced in rats by a single injection of streptozotocin (50 mg/kg, intraperitoneally). After having confirmed the development of diabetes by established hyperglycemia, determined in blood samples taken from the rats, asimadoline was administered subcutaneously at doses of 1 mg/kg, 5 mg/kg and 15 mg/kg. For comparison, gabapentin, the most recent treatment for diabetic neuropathy, at 50 mg/kg was included. To determine mechanical threshold (tactile allodynia) for foot withdrawal, a series of Von Frey filaments (minimum 0.25 g; maximum 15 g) was applied in sequence to the plantar surface of the right hindpaw with a pressure that causes the filament to buckle, starting with a filament of a buckling weight of 2 g. Absence of a response after 5 seconds was regarded a negative response, and the next heavier filament was applied. Lifting of the paw was recorded as a positive response, and the next lightest filament were applied. This sequence was continued until four measurements have been made after an initial change in the behavior or until five consecutive negative (given the score of 15 g) or four positive (score of 0.25 g) scores were obtained. The resulting sequence of positive and negative scores was used to determine the 50% response threshold.
That the beneficial effects are indeed due to the opioid mechanism of asimadoline can also be seen in Table 1.

[2] = test system: L5/L6 spinal nerve ligated rats (tactile allodynia); test: Tactile allodynia (Von Frey filaments) in rats with L5 and L6 spinal nerve ligation; type: in vivo, rat
Source text: B) Neuropathic pain was induced by surgical […], i.e. the L5 and L6 spinal nerves on one side were tightly ligated in anesthetized rats. After 15 days of recovery, a series of Von Frey filaments (0.4- 15 g) was applied in sequence to the plantar surface of the ligated hind paw to determine the 50% mechanical threshold for foot withdrawal as described before.

[3] = test system: capsaicin-treated monkey tail (thermal allodynia); test: Capsaicin-induced thermal allodynia, tail withdrawal latency in monkey model; type: in vivo; settings: 45 min after administration; for Tail Withdrawal Latency Mean ± SEM: capsaicin, cut-off 20 sec
Method: C) Because neuropatic pain is characterized by allodynia for various sensory modalities, also thermal allodynia was investigated in a monkey model where allodynia was induced by the topical application of […] of capsaicin to the surface of the tail. Allodynia was assessed by the latency for withdrawal of the tail following immersion of the tail into water with non-noxious temperatures of either 38° C. or 42° C. (cut-off latency of 20 sec).

NCC1(CC(=O)O)CCCCC1 [Gabapentin, reference compound] was tested, and the “50% Response Threshold Mean ± SEM” value ([1]; diabetic rats, 50 mg/kg s.c.) was 10 ± 1.9 g and the “50% Response Threshold Mean ± SEM” value ([2]; 100 mg/kg p.o.) was 12.8 ± 1.6 g.

Oc1ccc2c3c1O[C@H]1c4[nH]c5c(c4C[C@@]4(O)[C@@H](C2)N(CC2CC2)CC[C@]314)C[C@@]1(O)[C@H]2Cc3ccc(O)c4c3[C@@]1(CCN2CC1CC1)[C@H]5O4 [nor-BNI, nor-binaltorphimine, reference compound] was tested, and the “50% Response Threshold Mean ± SEM” value ([1]; non-diabetic control rats, nor-BNI 100 μg i.pl.) was 13 ± 1.6 g.

For CN(C(=O)C(c1ccccc1)c1ccccc1)[C@H](CN1CC[C@H](O)C1)c1ccccc1.Cl [Asimadoline, N-methyl-N-[(1S)-1-phenyl-2-((3S)-3-hydroxypyrrolidin-1-yl)ethyl]-2,2-diphenylacetamide, hydrochloride], the “50% Response Threshold Mean ± SEM” value ([1]; diabetic rats, 1 mg/kg s.c., 3 h after administration) was 2 ± 0.2 g, the “50% Response Threshold Mean ± SEM” value ([1]; diabetic rats, 5 mg/kg s.c., 3 h after administration) was 6 ± 2.0 g and the “50% Response Threshold Mean ± SEM” value ([1]; diabetic rats, 15 mg/kg s.c., 3 h after administration) was 9 ± 1.7 g. For the same compound, the “effect on tactile allodynia (in words)” value ([1]; diabetic rats, highest dose (15 mg/kg s.c.), 3 h after administration) was “nearly completely abolished tactile allodynia”, the “anti-allodynic effect after intraplantar injection of kappa antagonist nor-BNI (in words)” value ([1]; diabetic rats, highest dose of asimadoline + nor-BNI i.pl.) was “completely abolished” and the “50% Response Threshold Mean ± SEM” value ([1]; diabetic rats, nor-BNI 100 μg i.pl. + Asimadoline 15 mg/kg s.c.) was 3 ± 1.0 g. For the same compound, the “50% Response Threshold Mean ± SEM” value ([2]; 1 mg/kg p.o., 2 h after administration) was 6.4 ± 0.5 g, the “50% Response Threshold Mean ± SEM” value ([2]; 3 mg/kg p.o., 2 h after administration) was 10.1 ± 0.6 g and the “50% Response Threshold Mean ± SEM” value ([2]; 10 mg/kg p.o., 2 h after administration) was 12.0 ± 0.4 g. The “effect on tactile allodynia (in words)” value ([2]; highest dose (10 mg/kg p.o.), 2 h after administration) was “nearly completely abolished tactile allodynia”, the “Tail Withdrawal Latency Mean ± SEM” value ([3]; 0.01 mg/kg s.c., water 38° C.) was 8.0 ± 4.5 s and the “Tail Withdrawal Latency Mean ± SEM” value ([3]; 0.01 mg/kg s.c., water 42° C.) was 4.5 ± 2.5 s. The “Tail Withdrawal Latency Mean ± SEM” value ([3]; 0.032 mg/kg s.c., water 38° C.) was 19.6 ± 0.4 s, the “Tail Withdrawal Latency Mean ± SEM” value ([3]; 0.032 mg/kg s.c., water 42° C.) was 12.8 ± 4.2 s and the “effect on thermal allodynia (in words)” value ([3]; highest dose (0.032 mg/kg s.c.), 38° C. condition) was “nearly completely abolished thermal allodynia”.
